Earlier results, collected in patent US7608126B1, “Method for horticulture plant rejuvenation” (priority 2006, dated 2009).

## C[C@]12CC[C@H](O)CC1=CC[C@@H]1[C@@H]2CC[C@]2(C)C(=O)CC[C@@H]12 [DHEA, dehydroepiandrosterone]
  solubility in water: not very soluble in water
